Here are results for 18 compounds from ChEMBL document CHEMBL5634084, “Design and optimization of selective and potent CDK9 inhibitors with flavonoid scaffold for the treatment of acute myeloid leukemia” (Eur J Med Chem, 2023).

Values after ≈ are worked out from the molar mass of the structure shown. Active and inactive are the calls of the source. The calls are words filed in the database; no cut-off is given here.

For series [1], the target named is CDK9/cyclin T1 (Homo sapiens) (UniProt O60563+P50750). Put plainly: Inhibition of CDK9/CyclinT1 (unknown origin) at 100 nM by ADP-Glo assay relative to control. It counts as protein-complex assay. Background: In ADP-Glo the light output rises with the ADP produced.
The target of series [2] is CDK2/Cyclin A2 (Homo sapiens) (UniProt P24941+P20248). The series can be described thus: Inhibition of CDK2/CyclinA2 (unknown origin) at 100 nM by ADP-Glo assay relative to control. It counts as protein-complex assay.
For series [3], the system named is MV4-11. The series can be described thus: Antiproliferative activity against human MV4-11 cells assessed as reduction in cell viability measured after 72 hrs. Conditions: MV4-11, 72 h. It counts as functional, cell-based.
The test system of series [4] is HL-60. The series can be described thus: Antiproliferative activity against human HL-60 cells assessed as reduction in cell viability measured after 72 hrs. The format is functional, cell-based. Conditions: HL-60, 72 h.
Series [5] can be described thus: Metabolic stability of the compound in mouse liver microsomes at 10 uM measured for 60 mins in presence of NADPH by LC-MS/MS analysis. It counts as ADME, Microsome. Conditions: 1 h.
Series [6] deals with A549. Put plainly: Antiproliferative activity against human A549 cells assessed as reduction in cell viability measured after 72 hrs. It counts as functional, cell-based. Conditions: A549, 72 h.
For series [7], the system named is HT-29. Put plainly: Antiproliferative activity against human HT-29 cells assessed as reduction in cell viability measured after 72 hrs. The settings on record: HT-29, 72 h. The format is functional, cell-based.
Series [8] deals with CDK6/cyclin D1 (Homo sapiens, UniProt Q00534). Put plainly: Inhibition of CDK6/CyclinD1 (unknown origin) by ADP-Glo assay. It counts as protein-complex assay.
Sequence of CDK6/cyclin D1 (P24385 whole entry): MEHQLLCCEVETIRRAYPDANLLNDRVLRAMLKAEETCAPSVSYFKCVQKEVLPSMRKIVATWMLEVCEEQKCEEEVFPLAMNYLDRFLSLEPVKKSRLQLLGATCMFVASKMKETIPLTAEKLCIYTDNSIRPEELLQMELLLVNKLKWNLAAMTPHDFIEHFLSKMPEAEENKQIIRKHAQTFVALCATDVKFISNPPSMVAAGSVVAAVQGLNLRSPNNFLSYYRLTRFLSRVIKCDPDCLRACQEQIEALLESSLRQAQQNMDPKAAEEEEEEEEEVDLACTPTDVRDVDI
Sequence of CDK6/cyclin D1 (Q00534 whole entry): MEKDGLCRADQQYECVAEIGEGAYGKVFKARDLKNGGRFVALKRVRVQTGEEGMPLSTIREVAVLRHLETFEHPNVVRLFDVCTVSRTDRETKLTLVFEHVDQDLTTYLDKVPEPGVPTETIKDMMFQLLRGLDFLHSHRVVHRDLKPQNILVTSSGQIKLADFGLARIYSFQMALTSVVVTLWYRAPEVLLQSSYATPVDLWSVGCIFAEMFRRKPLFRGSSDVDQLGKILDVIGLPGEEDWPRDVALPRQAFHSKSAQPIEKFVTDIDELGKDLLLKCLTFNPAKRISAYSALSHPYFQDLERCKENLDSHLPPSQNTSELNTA
Series [9] is described as follows: Toxicity in BALB/c mouse xenografted with human MV4-11 cells assessed as animal's mortality at 10 to 20 mg/kg, iv qd. The settings on record: in vivo, dose 10-20 mg/kg. The format is organism-based. (In general: In xenograft studies the graft and the host belong to different species.)
In series [10] the test system is SW480. Put plainly: Antiproliferative activity against human SW480 cells assessed as reduction in cell viability measured after 72 hrs. It counts as functional, cell-based. The settings on record: SW480, 72 h.
A short description of series [11]: Metabolic stability of the compound in rat liver microsomes at 10 uM measured for 60 mins in presence of NADPH by LC-MS/MS analysis. It counts as ADME, Microsome. The settings on record: 1 h. Background: Liver microsomes are a subcellular fraction often used to study metabolism.
Series [12] deals with BT-549. The series can be described thus: Antiproliferative activity against human BT-549 cells assessed as reduction in cell viability measured after 72 hrs. It counts as functional, cell-based. Conditions: BT-549, 72 h.
Series [13] is described as follows: Cytotoxicity against human HEK293 cells assessed as reduction in cell viability measured after 72 hrs. It counts as toxicity, cell-based.
Series [14] deals with MCF7. The series can be described thus: Antiproliferative activity against human MCF7 cells assessed as reduction in cell viability measured after 72 hrs. It counts as functional, cell-based. The settings on record: MCF7, 72 h.
Series [15] relates to HCT-116. The series can be described thus: Antiproliferative activity against human HCT-116 cells assessed as reduction in cell viability measured after 72 hrs. It counts as functional, cell-based. The settings on record: HCT-116, 72 h.
Series [16] relates to MV4-11. Put plainly: Antitumor activity against human MV4-11 cells xenografted in BALB/c mouse assessed as inhibition of tumor growth at 10 mg/kg, iv qd and measured every 2 days. It counts as functional. Conditions: MV4-11, 48 h, read-out: TGI.
The test system of series [17] is HepG2. The series can be described thus: Antiproliferative activity against human HepG2 cells assessed as reduction in cell viability measured after 72 hrs. The format is functional, cell-based. Conditions: HepG2, 72 h.
Series [18] concerns THP-1. The series can be described thus: Antiproliferative activity against human THP-1 cells assessed as reduction in cell viability measured after 72 hrs. It counts as functional, cell-based. Conditions: THP-1, 72 h.
Series [19] has as its system MV4-11. Put plainly: Antitumor activity against human MV4-11 cells xenografted in BALB/c mouse assessed as inhibition of tumor growth at 20 mg/kg, iv qd and measured every 2 days. It counts as functional. Conditions: MV4-11, 48 h, read-out: TGI.
Series [20] in a line: Metabolic stability of the compound in rat plasma at 10 uM measured for 60 mins by LC-MS/MS analysis. The settings on record: 1 h. It counts as ADME, cell-free.
The target in series [21] is Cyclin-dependent kinase 4/cyclin D1 (Homo sapiens, UniProt P11802). The series can be described thus: Inhibition of CDK4/CyclinD1 (unknown origin) by ADP-Glo assay. The format is protein-complex assay.
Sequence of Cyclin-dependent kinase 4/cyclin D1 (P11802 whole entry): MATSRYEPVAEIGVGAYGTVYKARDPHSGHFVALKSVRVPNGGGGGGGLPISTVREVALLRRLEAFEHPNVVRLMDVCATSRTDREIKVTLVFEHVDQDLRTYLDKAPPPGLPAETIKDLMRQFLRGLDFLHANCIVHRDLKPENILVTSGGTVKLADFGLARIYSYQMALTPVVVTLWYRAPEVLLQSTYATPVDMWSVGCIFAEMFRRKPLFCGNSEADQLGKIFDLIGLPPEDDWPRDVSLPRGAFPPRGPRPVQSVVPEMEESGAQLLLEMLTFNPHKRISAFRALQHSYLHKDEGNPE
Sequence of Cyclin-dependent kinase 4/cyclin D1 (P24385 whole entry, further chain): as the sequence (P24385 whole entry) above
In series [22] the target is CDK7/Cyclin H/MNAT1 (Homo sapiens, UniProt P50613). Put plainly: Inhibition of CDK7/Cyclin H/MAT1 (unknown origin) by ADP-Glo assay. The format is protein-complex assay.
Sequence of CDK7/Cyclin H/MNAT1 (P51946 whole entry): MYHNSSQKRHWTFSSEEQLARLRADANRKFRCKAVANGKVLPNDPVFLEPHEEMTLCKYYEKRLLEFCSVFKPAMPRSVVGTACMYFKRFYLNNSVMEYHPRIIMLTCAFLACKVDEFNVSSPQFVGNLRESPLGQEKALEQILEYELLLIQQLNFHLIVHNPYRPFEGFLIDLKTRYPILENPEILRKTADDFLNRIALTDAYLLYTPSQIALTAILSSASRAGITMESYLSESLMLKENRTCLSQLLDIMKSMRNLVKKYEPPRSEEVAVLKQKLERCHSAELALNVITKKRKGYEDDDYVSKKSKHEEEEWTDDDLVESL
Sequence of CDK7/Cyclin H/MNAT1 (P50613 whole entry): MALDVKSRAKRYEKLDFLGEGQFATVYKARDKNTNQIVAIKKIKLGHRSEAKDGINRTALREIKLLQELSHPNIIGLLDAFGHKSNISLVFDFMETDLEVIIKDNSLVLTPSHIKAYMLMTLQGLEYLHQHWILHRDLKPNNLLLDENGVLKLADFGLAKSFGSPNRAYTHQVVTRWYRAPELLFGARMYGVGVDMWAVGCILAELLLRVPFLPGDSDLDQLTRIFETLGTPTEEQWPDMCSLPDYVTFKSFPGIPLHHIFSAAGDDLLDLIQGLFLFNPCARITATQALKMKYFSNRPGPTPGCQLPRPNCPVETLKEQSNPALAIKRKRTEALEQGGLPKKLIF
Sequence of CDK7/Cyclin H/MNAT1 (P51948 whole entry, further chain): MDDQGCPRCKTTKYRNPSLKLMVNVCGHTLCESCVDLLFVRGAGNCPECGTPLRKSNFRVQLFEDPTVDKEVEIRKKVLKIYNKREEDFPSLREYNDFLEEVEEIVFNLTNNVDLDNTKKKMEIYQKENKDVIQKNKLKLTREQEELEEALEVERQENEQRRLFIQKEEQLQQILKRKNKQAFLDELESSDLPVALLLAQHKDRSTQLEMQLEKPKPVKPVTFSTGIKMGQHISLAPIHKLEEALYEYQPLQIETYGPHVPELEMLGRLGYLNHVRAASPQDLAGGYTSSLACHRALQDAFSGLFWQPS
Series [23] in a line: Inhibition of CDK1/CyclinA2 (unknown origin) by ADP-Glo assay. Also on record: species or system Homo sapiens.
The nature of series [24]: Solubility of the compound in water at pH 7.4. The format is physicochemical.
Series [25] is described as follows: Cytotoxicity against human L02 cells assessed as reduction in cell viability measured after 72 hrs. The format is toxicity, cell-based.
A short description of series [26]: Toxicity in BALB/c mouse xenografted with human MV4-11 cells assessed as effect on body weight at 10 to 20 mg/kg, iv qd. The settings on record: in vivo, dose 10-20 mg/kg. It counts as organism-based.
Series [27] concerns MOLM-13. The series can be described thus: Antiproliferative activity against human MOLM-13 cells assessed as reduction in cell viability measured after 72 hrs. The format is functional, cell-based. Conditions: MOLM-13, 72 h.

Broadly, the inhibition is the percentage by which the read-out fell short of the control. As a reminder, the IC50 is the midpoint of a concentration-inhibition curve. In series [1], `COc1cc(O)c2c(=O)cc(-c3ccc(N4CCNCC4)cc3)oc2c1N1CCNCC1` had an inhibition of 70.8%. For the same compound, in series [2], the inhibition result is “inactive”. For the same compound, the IC50 in series [3] amounted to 100 nM.
Taken in the same sequence, the figures for `COc1cc(O)c2c(=O)cc(-c3ccc(N4CCCNCC4)cc3)oc2c1C1=CCN(C)CC1` were 99%, 32.5% and 150 nM.
The matching figures for `COc1cc(O)c2c(=O)cc(-c3ccc(N4CCC(N5CCOCC5)CC4)cc3)oc2c1C1=CCN(C)CC1`: 90.9%, 29% and 330 nM.
Taken in the same sequence, the figures for `COc1cc(O)c2c(=O)cc(-c3ccc(N4CCC(N5CCOCC5)CC4)cc3)oc2c1N1CCNCC1` were 78%, 4.7% and 310 nM.
`COc1cc(O)c2c(=O)cc(-c3ccc(N4CCN(C)CC4)cc3)oc2c1N1CCC(N2CCOCC2)CC1`: the figures for the inhibition in [1] and in series [2] were 70% and 24.5%, respectively. The IC50 in series [3] was determined as 210 nM.
By solubility is commonly meant the dissolved amount per volume that the medium holds. Low readings indicate little dissolved substance, high ones much dissolved substance. Consider `COc1cc(O)c2c(=O)cc(-c3ccc(N4CCN(C)CC4)cc3)oc2c1N1CCNCC1`, for which the IC50 in series [4] is 120 nM; in series [6], 1150 nM; in series [7] it was 880 nM; in [8], 2220 nM; in [10], 990 nM; in series [12], 1850 nM. The IC50 in series [14] was determined as 1500 nM; in series [15] it was 690 nM; in [17] it was 1770 nM; in [18], 4260 nM; in series [21] it was 311 nM; in series [22], 4520 nM. Further, the IC50 in series [23] is 1780 nM; in [3], 80 nM; in [27], 1110 nM. The Stability entry in series [5], in series [11] and in [20] was “Stable” in each case. Also, the inhibition in series [1] came out at 75%; in [2], 8.3%. The Activity entry in series [9] and in [26] was “Non-Toxic” throughout. Further, the IC50 at 72 h in [13] turned out to be 25500 nM; in series [25], 17700 nM. Besides, in [16], the inhibition in vivo at 10 mg/kg was 48%. Moreover, the inhibition in vivo at 20 mg/kg in series [19] amounted to 61%. The compound further came in with a solubility in series [24] of 450 µg/mL (≈ 999 µM).
Take `COc1cc(O)c2c(=O)cc(-c3ccc(N4CCCNCC4)cc3)oc2c1N1CCNCC1`: the inhibition in series [1] turned out to be 78%; in series [2], 18.9%. In addition, the IC50 in series [3] came to 210 nM.
The matching figures for `COc1cc(O)c2c(=O)cc(-c3ccc(N4CCCC4)cc3)oc2c1N1CCNCC1`: 79.6%, 4.7% and 170 nM.
Taken in the same sequence, the figures for `COc1cc(O)c2c(=O)cc(-c3ccc(N4CCOCC4)cc3)oc2c1N1CCNCC1` were 74.4%, 17.5% and 170 nM.
Take `COc1cc(O)c2c(=O)cc(-c3ccc(N4CCN(C)CC4)cc3)oc2c1`: the inhibition in series [1] stood at 5.1%. Moreover, the inhibition entry in series [2] is “inactive”. Also, the half-inhibitory concentration (IC50) in series [3] is 2020 nM.
Taken in the same sequence, the figures for `COc1cc(O)c2c(=O)cc(-c3ccc(N4CCN(C)CC4)cc3)oc2c1Oc1c(C)n[nH]c1C` were 75.8%, 14.2% and 2020 nM.
The matching figures for `COc1cc(O)c2c(=O)cc(-c3ccc(N4CCN(C)CC4)cc3)oc2c1N1CCCCC1`: 47.5%, “inactive” and 1230 nM.
The matching figures for `COc1cc(O)c2c(=O)cc(-c3ccc(N4CCNCC4)cc3)oc2c1C1=CCN(C)CC1`: 98.6%, “inactive” and 130 nM.
As to `COc1cc(O)c2c(=O)cc(-c3ccc(N4CCN(C)CC4)cc3)oc2c1[C@H]1CCN(C)C[C@H]1O`, the inhibition was determined as 64.9% in [1] and 5.4% in [2]. Moreover, the IC50 in series [3] came out at 180 nM.
Taken in the same sequence, the figures for `COc1cc(O)c2c(=O)cc(-c3ccc(N4CCN(C)CC4)cc3)oc2c1N1CCCC1` were 17.6%, “inactive” and 70 nM.
The matching figures for `COc1cc(O)c2c(=O)cc(-c3ccc(N4CCN(C)CC4)cc3)oc2c1[C@H]1CCN(C)[C@@H]1CO`: 1.4%, “inactive” and 70 nM.
Taken in the same sequence, the figures for `COc1cc(O)c2c(=O)cc(-c3ccc(N4CCN(C)CC4)cc3)oc2c1N1CCOCC1` were 44.4%, “inactive” and 110 nM.
In the case of `COc1cc(O)c2c(=O)cc(-c3ccc(N4CCN(C)CC4)cc3)oc2c1N1CCN(C)CC1`, the inhibition in series [1] was found to be 75.8%; in [2], 23.5%. Besides, the IC50 in [3] came out at 100 nM.
